Results as given in patent US12600808B2, “Crosslinkable prepolymers for chemically stable polymer gels” (priority 2020, dated 2026).

Legend:
Type in all cases: physicochemical
[1] = Photopolymerization efficiency, gravimetric determination of the cured polymer mass; settings: photopolymerization efficiency test per application example 5 with antioxidant
Procedure: The photopolymerization efficiency was examined by gravimetric determination of the cured polymer mass: Solutions containing prepolymer prepared according to examples 5-7, 10 or 11 (15% w/w) and photoinitiator (0.1% w/w) were prepared in deionized water. 500 mg of the premixed solutions were loaded into a 2 mL polystyrene cuvette and irradiated for 60 s with a laser (X=405 nm, p=10 mW) from the side. The solid hydrogels were removed, wiped to remove residual liquid, and weighed. The ratio of solid, cure material to liquid, uncured material was calculated and used as a measure for the photopolymerization efficiency. The setup used is depicted in FIG. 2: 301 represents the polystyrene cuvette, 302 the liquid prepolymer composition, 303 the solidified hydrogel and 304 the laser beam.
The photopolymerization efficiency of the prepolymers PEG-DMA (prepared according to example 7), linker-containing PEG-dimethacrylates (example 5-7), PEG-DAAm (example 10), linker-containing PEG-diacrylamides (example 11) and 1OR5-Dimethacrylate (example 12) was compared according to application example 5: […]

[2] = Antioxidant testing: accelerated aging of antioxidant-doped hydrogels in D2O, decomposition markers by NMR; settings: antioxidant added to prepolymer formulation (BHT with 1% DMSO)
Text: The influence of different antioxidants on hydrogel stability was studied by doping prepolymer formulations with specified antioxidants prior to photopolymerization as described in application example 1, followed by accelerated aging experiments in heavy water (D20).
Detection of decomposition was observed by NMR spectroscopy with the formation of decomposition markers, such as formic acid, in the liquid. This was quantified with the addition of an internal standard.

[3] = Retainment of antioxidants in hydrogel samples, leaching with weekly exchange of heavy water
Procedure: The retainment properties of antioxidants were tested by preparing and aging antioxidant-doped samples according to application example 3. The heavy water the hydrogels samples were aged in was exchanged weekly, followed by testing of the heavy water. Detection of decomposition was observed by NMR spectroscopy with the formation of decomposition markers, such as formic acid, in the liquid. This was quantified with the addition of an internal standard.
Retainment of BHT and sodium fenozan was studied according to […].

Compound	Reduction of polymerized mass in presence of antioxidant [1]	Decomposition (decomposition marker such as formic acid) of hydrogel with antioxidant [2]	Retainment of antioxidant in hydrogel (decomposition markers and antioxidant in leached solvent) ([3]; leaching experiments over three weeks)	Decomposition markers in leached solvent ([3]; after 3 weeks of leaching) [mM]
Cc1cc(C(C)(C)C)c(O)c(C(C)(C)C)c1 [BHT]	no reduction of polymerized masses was observed	no decomposition was observed	lack of decomposition markers and antioxidant in the leached solvent	–
CC(C)(C)c1cc(CCC(=O)[O-])cc(C(C)(C)C)c1O.[Na+] [sodium fenozan]	no reduction of polymerized masses was observed	no decomposition was observed	–	1.4
